Data taken from ChEMBL document CHEMBL5321211, “Synthesis and evaluation of anti-yellow fever virus activity of new 6-aryl-3-R-amino-1,2,4-triazin-5(4H)-ones” (Eur J Med Chem, 2023).
≈ marks a conversion by molar mass, not a printed value.

What was measured:
Yellow fever virus [1] = assay: Antiviral activity against Yellow fever virus assessed as reduction in cytopathic effect by neutral red uptake assay; assay type: functional, organism-based
Yellow fever virus [2] = assay: Antiviral activity against Yellow fever virus; assay type: functional, organism-based
Yellow fever virus [3] = assay: Antiviral activity against Yellow fever virus African green monkey Vero cells assessed as reduction in cytopathic effect; assay type: functional, organism-based
Yellow fever virus [4] = assay: Antiviral activity against Yellow fever virus 17D assessed as reduction in cytopathic effect incubated for 30 mins; assay type: functional, organism-based; settings: 0.5 h
[5] = Cytotoxicity against African green monkey Vero cells assessed as inhibition of cell growth by neutral red uptake assay; assay type: toxicity, cell-based, Chlorocebus sabaeus
Yellow fever virus [6] = assay: Antiviral activity against Yellow fever virus 17D infected in African green monkey Vero assessed as reduction in cytopathic effect preincubated with compound for 5 mins followed by viral infection and measured at 72 to 120 hrs by neutral red uptake assay; assay type: functional, organism-based
[7] = Cytotoxicity against African green monkey Vero cells assessed as inhibition of cell growth by visual analysis; assay type: toxicity, cell-based, Chlorocebus sabaeus
[8] = Selectivity index, ratio of IC50 for cytotoxicity against African green monkey Vero cells assessed as inhibition of cell growth by neutral red uptake assay to EC50 for antiviral activity against Yellow fever virus 17D infected in African green monkey Vero assessed as reduction in cytopathic effect; assay type: toxicity, cell-based; settings: read-out: Ratio IC50/EC50
Yellow fever virus [9] = assay: Antiviral activity against Yellow fever virus 17D infected in African green monkey Vero assessed as reduction in cytopathic effect preincubated with compound for 5 mins followed by viral infection and measured at 72 to 120 hrs by visual analysis; assay type: functional, organism-based
[10] = Selectivity index, ratio of IC50 for cytotoxicity against African green monkey Vero cells assessed as inhibition of cell growth by visual analysis to EC50 for antiviral activity against Yellow fever virus 17D infected in African green monkey Vero assessed as reduction in cytopathic effect; assay type: toxicity, cell-based; settings: read-out: Ratio IC50/EC50
[11] = Selectivity index, ratio of CC50 for cytotoxicity against African green monkey Vero cells to EC50 for antiviral activity against Yellow fever virus 17D infected in African green monkey Vero assessed as reduction in cytopathic effect; assay type: toxicity, cell-based; settings: read-out: Ratio CC50/EC50
Yellow fever virus [12] = assay: Antiviral activity against Yellow fever virus 17D infected in African green monkey Vero assessed as reduction in cytopathic effect preincubated with compound for 5 mins followed by viral infection and measured at 7 days; assay type: functional, organism-based
Yellow fever virus [13] = assay: Antiviral activity against Yellow fever virus 17D infected in African green monkey Vero assessed as reduction in cytopathic effect preincubated with compound for 5 mins followed by viral infection and measured at 72 to 120 hrs; assay type: functional, organism-based
Yellow fever virus [14] = assay: Antiviral activity against Yellow fever virus 17D infected in African green monkey Vero assessed as reduction in virus yield preincubated with compound for 5 mins followed by viral infection and measured at 72 to 120 hrs; assay type: functional; settings: time 4325-7205 min
Yellow fever virus [15] = assay: Antiviral activity against Yellow fever virus 17D infected in Huh-7 cells assessed as reduction in cytopathic effect; assay type: functional, organism-based
[16] = Selectivity index, ratio of CC50 for cytotoxicity against human A549 cells to EC50 for antiviral activity against Yellow fever virus infected in human A549 cells assessed as reduction in virus replication; assay type: toxicity, cell-based; settings: read-out: Ratio CC50/EC50
Yellow fever virus [17] = assay: Antiviral activity against Yellow fever virus infected in human A549 cells assessed as reduction in virus replication; assay type: functional, organism-based
[18] = Selectivity index, ratio of CC50 for cytotoxicity against human Huh-7 cells to EC50 for antiviral activity against wild typeYellow fever virus infected in human Huh-7 cells assessed as reduction in virus replication; assay type: toxicity, cell-based; settings: read-out: Ratio CC50/EC50
Yellow fever virus [19] = assay: Antiviral activity against wild typeYellow fever virus infected in human Huh-7 cells assessed as reduction in virus replication; assay type: functional, organism-based

Compound	IC50 [5] [µg/mL]	EC50 (Yellow fever virus [6]) [µg/mL]	selectivity ratio [8]	other results
NC(=O)C1(N2CCCCC2)CCN(C(=O)CSc2nc3ccccc3o2)CC1				EC50 (Yellow fever virus [1]): 7.4 µM
CCn1c(=O)/c(=C2\Sc3c(F)cccc3N2C)s/c1=C\c1cccc[n+]1C				EC50 (Yellow fever virus [2]): < 1 µM
Nc1c(C(=O)Nc2nnc(-c3ccccc3)s2)sc2nc3c(cc12)CCCCC3				EC50 (Yellow fever virus [3]): 6.97 µM
C/C(=N\Nc1ccccc1)c1sc(-c2cc(Cl)nc(Oc3ccc(Cl)cc3)c2)nc1C				EC50 (Yellow fever virus [4]): 1.6 µM
O=c1[nH]c(Nc2ccc(F)cc2)nnc1Cc1ccc(F)cc1	> 100	> 100		
Cc1ccc(Cc2nnc(Nc3ccccc3F)[nH]c2=O)cc1	> 100	1 (≈ 3.22 µM)	> 19	IC50 [7]: 43 µg/mL (≈ 139 µM); EC50 (Yellow fever virus [9]): 5 µg/mL (≈ 16.1 µM); selectivity ratio [10]: 8.6
COc1ccccc1Nc1nnc(Cc2ccc(C)cc2)c(=O)[nH]1	> 100	0.94 (≈ 2.92 µM)	> 31	IC50 [7]: 27 µg/mL (≈ 83.8 µM); EC50 (Yellow fever virus [9]): 4.2 µg/mL (≈ 13 µM); selectivity ratio [11]: > 36; EC50 (Yellow fever virus [12]): 4.2 µg/mL (≈ 13 µM); EC50 (Yellow fever virus [13]): 13 µM; selectivity ratio [10]: 6.4; EC90 (Yellow fever virus [14]): 50 µg/mL (≈ 155 µM)
COc1ccc(OC)c(Nc2nnc(Cc3ccc(C)cc3)c(=O)[nH]2)c1	16 (≈ 45.4 µM)	2.9 (≈ 8.23 µM)	5.5	
CC(C)c1ccc(Cc2nnc(NCCN3CCOCC3)[nH]c2=O)cc1	> 100	> 100		
CCOc1ccc(Nc2nnc(Cc3ccc(C)cc3)c(=O)[nH]2)cc1	> 100	> 100		
CCOC(=O)c1ccc(Nc2nnc(Cc3ccc(C)cc3)c(=O)[nH]2)cc1	> 100	> 100		
Cc1ccc(Cc2nnc(Nc3ccc(F)cc3)[nH]c2=O)cc1	> 100	1 (≈ 3.22 µM)	> 14	IC50 [7]: 51 µg/mL (≈ 164 µM); EC50 (Yellow fever virus [9]): 10 µg/mL (≈ 32.2 µM); selectivity ratio [10]: 5.1
Cc1ccc(Cc2nnc(NC3CCCCC3)[nH]c2=O)cc1	> 100	30 (≈ 101 µM)	> 3.3	
COc1ccc(Nc2nnc(Cc3ccc(C(C)C)cc3)c(=O)[nH]2)cc1OC	> 38	> 38		
CCOc1ccccc1Nc1nnc(Cc2ccc(C)cc2)c(=O)[nH]1	> 100	> 100		
Cc1ccc(Cc2nnc(Nc3cccc(F)c3)[nH]c2=O)cc1	> 100	1 (≈ 3.22 µM)	> 14	IC50 [7]: 51 µg/mL (≈ 164 µM); EC50 (Yellow fever virus [9]): 6.2 µg/mL (≈ 20 µM); selectivity ratio [11]: > 53; EC50 (Yellow fever virus [12]): 6.2 µg/mL (≈ 20 µM); EC50 (Yellow fever virus [13]): 20 µM; selectivity ratio [10]: 8.2; EC90 (Yellow fever virus [14]): 65 µg/mL (≈ 209 µM)
Cc1cccc(Nc2nnc(Cc3ccc(F)cc3)c(=O)[nH]2)c1C	> 100	> 100		

Compound	IC50 [5] [µg/mL]	EC50 (Yellow fever virus [6]) [µg/mL]	selectivity ratio [8]	other results
Cc1ccc(Cc2nn3c(=O)c4ccccc4nc3[nH]c2=O)cc1	> 100	> 100		
CC[C@H](C)[C@@H]1N=C(c2ccccc2)c2cc(Cl)ccc2N(CC(=O)O)C1=O				EC50 (Yellow fever virus [15]): 0.21 µM
Cc1ccc(Cc2nnc(Nc3ccccc3C)[nH]c2=O)cc1	> 100	18 (≈ 58.8 µM)	> 5.6	
CC(=O)Nc1ccc(Nc2nnc(Cc3ccc(C)cc3)c(=O)[nH]2)cc1	> 100	> 100		
C[C@@H]1[C@@H](CO)O[C@@H](n2ccc(N)nc2=O)[C@]1(C)O				EC50 (Yellow fever virus [2]): 0.7 µM
COc1ccc(Nc2nnc(Cc3ccc(C)cc3)c(=O)[nH]2)cc1OC	18 (≈ 51.1 µM)	11 (≈ 31.2 µM)	1.6	
Cc1ccc(Cc2nnc(Nc3cccc(C)c3)[nH]c2=O)cc1	> 100	0.48 (≈ 1.57 µM)	> 29	IC50 [7]: 58 µg/mL (≈ 189 µM); EC50 (Yellow fever virus [9]): 10 µg/mL (≈ 32.6 µM); selectivity ratio [11]: 23; EC50 (Yellow fever virus [12]): 10 µg/mL (≈ 32.6 µM); EC50 (Yellow fever virus [13]): 33 µM; EC90 (Yellow fever virus [14]): 158 µg/mL (≈ 516 µM)
Cc1ccc(Cc2nnc(Nc3cc(C)ccc3C)[nH]c2=O)cc1	> 100	23 (≈ 71.8 µM)	> 4.3	
Cc1ccc(Cc2nnc(Nc3ccccc3)[nH]c2=O)cc1	> 100	6.2 (≈ 21.2 µM)	> 7.1	IC50 [7]: 16 µg/mL (≈ 54.7 µM); EC50 (Yellow fever virus [9]): 7.4 µg/mL (≈ 25.3 µM); selectivity ratio [10]: 2.2
COC(=O)c1ccc(Nc2nnc(Cc3ccc(C)cc3)c(=O)[nH]2)cc1	> 100	> 100		
COc1ccc(Nc2nnc(Cc3ccc(C)cc3)c(=O)[nH]2)c(OC)c1	> 100	1 (≈ 2.84 µM)	> 17	IC50 [7]: 58 µg/mL (≈ 165 µM); EC50 (Yellow fever virus [9]): 3.5 µg/mL (≈ 9.93 µM); selectivity ratio [11]: 51; EC50 (Yellow fever virus [12]): 3.5 µg/mL (≈ 9.93 µM); EC50 (Yellow fever virus [13]): 9.9 µM; selectivity ratio [10]: 17; EC90 (Yellow fever virus [14]): 28 µg/mL (≈ 79.5 µM)
O=c1cnn([C@@H]2O[C@H](CO)[C@@H](O)[C@H]2O)c(=O)[nH]1 [6-AZAURIDINE]				EC50 (Yellow fever virus [2]): 46 µM
O=C1OC2(c3ccccc31)c1cc(I)c(O)c(I)c1Oc1c2cc(I)c(O)c1I [ERYTHROSINE]				selectivity ratio [16]: > 263; EC50 (Yellow fever virus [17]): 0.57 µM
NC(=O)c1nc(F)cnc1O [FAVIPIRAVIR]				EC50 (Yellow fever virus [2]): 330 µM
NC(=O)c1ncn([C@@H]2O[C@H](CO)[C@@H](O)[C@H]2O)n1 [RIBAVIRIN]				selectivity ratio [18]: 58; EC50 (Yellow fever virus [19]): 4.9 µM
CC(C)OC(=O)[C@H](C)N[P@](=O)(OC[C@H]1O[C@@H](n2ccc(=O)[nH]c2=O)[C@](C)(F)[C@@H]1O)Oc1ccccc1 [SOFOSBUVIR]				selectivity ratio [18]: 90; EC50 (Yellow fever virus [19]): 4.2 µM
